These results are taken from patent publication US6974806B2, “Lipid-rich plaque inhibitors” (Takeda Pharmaceutical Company Limited, priority 2000, dated 2005).

Regarding `COc1cccc(OC)c1NC(=O)Cc1c(-c2ccccc2)c2cc3c(cc2oc1=O)CCC3` [Example 1, N-(2,6-dimethoxyphenyl)-2-(2-oxo-4-phenyl-2,6,7,8-tetrahydrocyclopenta[g]chromen-3-yl)acetamide], the melting point was 213 to 215 °C. In turn, `CCOc1cccc(OCC)c1NC(=O)Cc1c(-c2ccccc2)c2cc3c(cc2oc1=O)CCC3` [Example 2] came in with a melting point of 216 to 219 °C. `CC(C)c1cccc(C(C)C)c1NC(=O)Cc1c(-c2ccccc2)c2cc3c(cc2oc1=O)CCC3` [Example 3] came in with a melting point of 261 to 263 °C. With `CCc1cccc(CC)c1NC(=O)Cc1c(-c2ccccc2)c2cc3c(cc2oc1=O)CCC3` [Example 4], the melting point lay within 279 to 281 °C. To `COc1cccc(C)c1NC(=O)Cc1c(-c2ccccc2)c2cc3c(cc2oc1=O)CCC3` [Example 5] belongs 232 to 237 °C; to `CCc1ccccc1NC(=O)Cc1c(-c2ccccc2)c2cc3c(cc2oc1=O)CCC3` [Example 6], 234 to 237 °C. Consider `COc1cc(C)cc(OC)c1NC(=O)Cc1c(-c2ccccc2)c2cc3c(cc2oc1=O)CCC3` [Example 8], for which the melting point lay in the range of 237 to 239 °C. The value for `COc1cccc(O)c1NC(=O)Cc1c(-c2ccccc2)c2cc3c(cc2oc1=O)CCC3` [Example 9] was 179 to 181 °C. To `COc1cc(O)cc(OC)c1NC(=O)Cc1c(-c2ccccc2)c2cc3c(cc2oc1=O)CCC3` [Example 10] belongs 160 °C (dec.); to `COc1cc(O)c(NC(=O)Cc2c(-c3ccccc3)c3cc4c(cc3oc2=O)CCC4)c(OC)c1` [Example 11], 170 to 172 °C. Regarding `O=C(Cc1c(-c2ccccc2)c2cc3c(cc2oc1=O)CCC3)Nc1ccccc1OC(F)(F)F` [Example 12], the melting point fell in the range of 191 to 194 °C. Regarding `O=C(Cc1c(-c2ccccc2)c2cc3c(cc2oc1=O)CCC3)Nc1c(OC2CCCC2)cccc1OC1CCCC1` [Example 14], the melting point fell in the range of 224 to 226 °C.

Take `O=C(Cc1c(-c2ccccc2)c2cc3c(cc2oc1=O)CCC3)Nc1c(Cl)cncc1Cl` [Example 15, N-(3,5-dichloro-4-pyridyl)-2-(2-oxo-4-phenyl-2,6,7,8-tetrahydrocyclopenta[g]chromen-3-yl)acetamide]: the melting point was in the range of 257 to 259 °C. On to `O=C(Cc1c(-c2ccccc2)c2cc3c(cc2oc1=O)CCC3)Nc1c(F)cc(F)cc1F` [Example 17], for which the melting point was 247 to 249 °C.

With `O=C(Cc1c(-c2ccccc2)c2cc3c(cc2oc1=O)CCC3)Nc1c(F)cccc1C(F)(F)F` [Example 18], the melting point lay in the range of 194 to 196 °C. To `O=C(Cc1c(-c2ccccc2)c2cc3c(cc2oc1=O)CCC3)Nc1ccc(Cl)cc1OC(F)(F)F` [Example 19] belongs 189 to 191 °C; to `O=C(Cc1c(-c2ccccc2)c2cc3c(cc2oc1=O)CCC3)Nc1ccc(F)cc1C(F)(F)F` [Example 20], 186 to 187 °C. `COc1cccc(OC)c1NC(=O)Cc1c(-c2ccccc2)c2cc(Cl)c(C)cc2oc1=O` [Example 22] displayed a melting point of 231 to 232 °C. As for `COc1cccc(OC)c1NC(=O)Cc1c(-c2ccccc2C)c2cc(Cl)c(C)cc2oc1=O` [Example 23], the melting point fell in the range of 176 to 177 °C. To `CCOc1cccc(OCC)c1NC(=O)Cc1c(-c2ccccc2)c2cc(Cl)c(C)cc2oc1=O` [Example 24] belongs 235 to 236 °C.

`Cc1cc2oc(=O)c(CC(=O)Nc3c(C(C)C)cccc3C(C)C)c(-c3ccccc3Cl)c2cc1Cl` [Example 25] returned a melting point of 245 to 246 °C. With `CCc1cccc(CC)c1NC(=O)Cc1c(-c2ccccc2)c2cc(Cl)c(C)cc2oc1=O` [Example 26], the melting point was in the range of 250 to 251 °C.

With `CCOc1cccc(OCC)c1NC(=O)Cc1c(-c2ccccc2)c2cc(C)c(C)cc2oc1=O` [Example 29], the melting point lay within 230 to 231 °C. On to `CCc1cccc(CC)c1NC(=O)Cc1c(-c2ccccc2)c2cc(C)c(C)cc2oc1=O` [Example 30], for which the melting point lay within 259 to 260 °C. In turn, `Cc1cc2oc(=O)c(CC(=O)Nc3c(C(C)C)cccc3C(C)C)c(-c3ccccc3)c2cc1C` [Example 31] came in with a melting point of 252 to 253 °C. The compound `COc1cccc(OC)c1NC(=O)Cc1c(-c2ccccc2)c2cc(Cl)c(Cl)cc2oc1=O` [Example 36] gave a melting point of 249 to 250 °C.

For the compound `CCOc1cccc(OCC)c1NC(=O)Cc1c(-c2ccccc2)c2cc(Cl)c(Cl)cc2oc1=O` [Example 37], the melting point lay within 246 to 247 °C. The compound `CC(C)c1cccc(C(C)C)c1NC(=O)Cc1c(-c2ccccc2)c2cc(Cl)c(Cl)cc2oc1=O` [Example 39] displayed a melting point of 289 to 290 °C. `COc1cccc(OC)c1NC(=O)Cc1c(-c2ccccc2)c2cc(Cl)c(Cl)c(Cl)c2oc1=O` [Example 40] displayed a melting point of 289 to 291 °C. `COc1cccc(OC)c1NC(=O)Cc1c(-c2ccccc2)c2cc(F)c(F)cc2oc1=O` [Example 41] gave a melting point of 196 to 198 °C. With `CC(C)c1cccc(C(C)C)c1NC(=O)Cc1c(-c2ccccc2)c2cc(F)c(F)cc2oc1=O` [Example 42], the melting point was 255 to 256 °C. In turn, `O=C(Cc1c(-c2ccccc2)c2cc(F)c(F)cc2oc1=O)Nc1c(OC2CCCC2)cccc1OC1CCCC1` [Example 44] came in with a melting point of 253 to 254 °C.

Take `COc1cccc(OC)c1NC(=O)Cc1c(-c2ccccc2)c2cc(C)c(Cl)cc2oc1=O` [Example 45]: the melting point lay in the range of 247 to 249 °C.

`Cc1cc2c(-c3ccccc3)c(CC(=O)Nc3c(C(C)C)cccc3C(C)C)c(=O)oc2cc1Cl` [Example 46] came in with a melting point of 280 to 282 °C. In the case of `COc1cccc(OC)c1NC(=O)Cc1c(-c2ccccc2)c2cc(CN(C)C)c(Cl)cc2oc1=O` [Example 70, 2-[7-chloro-6-{(dimethylamino)methyl}-2-oxo-4-phenyl-2H-chromen-3-yl]-N-(2,6-dimethoxyphenyl)acetamide], the melting point was in the range of 221 to 223 °C. To `COc1cccc(OC)c1NC(=O)Cc1c(-c2ccccc2)c2cc(CN3CCOCC3)c(Cl)cc2oc1=O` [Example 71] belongs 209 to 211 °C; to `CC(C)c1cccc(C(C)C)c1NC(=O)Cc1c(-c2ccccc2)c2cc(CN(C)C)c(Cl)cc2oc1=O` [Example 72], 301 to 303 °C; to `CC(C)c1cccc(C(C)C)c1NC(=O)Cc1c(-c2ccccc2)c2cc(CN3CCOCC3)c(Cl)cc2oc1=O` [Example 73], 296 to 298 °C.

Turning to `O=C(Cc1c(-c2ccccc2)c2cc(CN3CCOCC3)c(Cl)cc2oc1=O)Nc1ccc(Cl)cc1C(F)(F)F` [Example 74, 2-[7-chloro-6-{(morpholin-4-yl)methyl}-2-oxo-4-phenyl-2H-chromen-3-yl]-N-(4-chloro-2-trifluoromethylphenyl)acetamide], the melting point lay within 205 to 207 °C. To `COc1cccc(OC)c1NC(=O)Cc1c(-c2ccccc2)c2cc(COC(C)=O)c(Cl)cc2oc1=O` [Example 80, [7-chloro-3-{2-(2,6-dimethoxyanilino)-2-oxoethyl}-2-oxo-4-phenyl-2H-chromen-6-yl]methyl acetate] belongs 229 to 231 °C. To `CC(=O)OCc1cc2c(-c3ccccc3)c(CC(=O)Nc3c(C(C)C)cccc3C(C)C)c(=O)oc2cc1Cl` [Example 81, [7-chloro-3-{2-(2,6-isopropylanilino)-2-oxoethyl}-2-oxo-4-phenyl-2H-chromen-6-yl]]methyl acetate] belongs 290 to 292 °C; to `CC(=O)OCc1cc2c(-c3ccccc3)c(CC(=O)Nc3ccc(Cl)cc3C(F)(F)F)c(=O)oc2cc1Cl` [Example 82, [7-chloro-3-{2-(4-chloro-2-trifluoromethylanilino)-2-oxoethyl}-2-oxo-4-phenyl-2H-chromen-6-yl]methyl acetate], 186 to 187 °C. Turning to `O=C(Cc1c(-c2ccccc2)c2cc(CO)c(Cl)cc2oc1=O)Nc1ccc(Cl)cc1C(F)(F)F` [Example 85], the melting point lay in the range of 241 to 243 °C. To `O=C(Cc1c(-c2ccccc2)c2cc(CO)ccc2oc1=O)Nc1ccc(Cl)cc1C(F)(F)F` [Example 86] belongs 226 to 227 °C.

The compound `O=C(Cc1c(-c2ccccc2)c2cc(Cl)c(CO)cc2oc1=O)Nc1ccc(Cl)cc1C(F)(F)F` [Example 87] showed a melting point of 220 to 222 °C. To `O=C(Cc1c(-c2ccccc2)c2cc3c(cc2oc1=O)C(=O)CC3)Nc1ccc(F)cc1C(F)(F)F` [Example 88, 2-(2,8-dioxo-4-phenyl-2,6,7,8-tetrahydrocyclopenta[g]chromen-3-yl)-N-[4-fluoro-2-(trifluoromethyl)phenyl]-acetamide] belongs 180 to 183 °C.

In the case of `O=C(Cc1c(-c2ccccc2)c2cc3c(cc2oc1=O)C(=O)CC3)Nc1ccc(Cl)cc1C(F)(F)F` [Example 89], the melting point lay in the range of 189 to 192 °C. Take `COc1cccc(OC)c1NC(=O)Nc1oc2cc3c(cc2c1-c1ccccc1C)CCC3` [Example 102, N-(2,6-Dimethoxyphenyl)-N′-[3-(2-methylphenyl)-6,7-dihydro-5H-indeno[5,6-b]furan-2-yl]urea]: the melting point is 208 °C (dec.). The value for `Cc1cc2oc(=O)c(CC(=O)Nc3ccc(F)cc3C(F)(F)F)c(-c3ccccc3)c2cc1Br` [Example 177, 2-(6-bromo-7-methyl-2-oxo-4-phenyl-2H-chromen-3-yl)-N-[4-fluoro-2-(trifluoromethyl)phenyl]acetamide] was 237 to 238 °C. The value for `COc1cc2c(-c3ccccc3)c(CC(=O)Nc3ccc(Cl)cc3C(F)(F)F)c(=O)oc2cc1Cl` [Example 178, 2-(7-chloro-6-methoxy-2-oxo-4-phenyl-2H-chromen-3-yl)-N-[4-chloro-2-(trifluoromethyl)phenyl]acetamide] was 246 to 247 °C; that for `CNCc1cc2c(-c3ccccc3)c(CC(=O)Nc3ccc(Cl)cc3C(F)(F)F)c(=O)oc2cc1Cl` [Example 180, 2-[6-[(methylamino)methyl]-7-chloro-2-oxo-4-phenyl-2H-chromen-3-yl]-N-[4-chloro-2-(trifluoromethyl)phenyl]acetamide] was 205 to 207 °C. The value for `CCN(CC)Cc1cc2c(-c3ccccc3)c(CC(=O)Nc3ccc(Cl)cc3C(F)(F)F)c(=O)oc2cc1Cl` [Example 182] was 163 to 164 °C.

A word on the melting point: it is the temperature, or range, at which the solid turns liquid.
